These molecules were tested on OF1 mice (assay: Maximal electroshock test (MES Test)). Conditions: Mus musculus, po; 50 mg/kg, p.o., pre-treatment time −1 h; read-out: %-Protection.
Format: in vivo
Experimental: Compounds of the invention were tested in OF1 mice using the maximal electroshock test (MES Test) described in detail by Schmutz et al., Naunyn-Schmiedeberg's Arch Pharmacol 1990, 342, 61-66. Briefly, generalized tonic-clonic convulsions of the hind extremities were induced by passing electrical current through temporal electrodes (50 Hz, 18 mA, 0.2s). […] 30 mg/kg carbamazepine was used as a positive control; mice were classified as protected by a compound If the duration of the seizure lasted only 3 second or less. Five mice were used for each treatment condition and the percentage of protected mice was used as readout (i.e. a compound could give 0%, 20%, 40%, 60%, 80% or 100% protection). Usually, compounds of the invention or their parents were given at a dose of 50 mg/kg, p.o., 1 hour prior to induction of convulsions (i.e. “pre-treatment time −1 h”).
ED50 values (ED: effective dose) were calculated using GraphPad Prism, v4.02. after shock administration, mouse blood was collected for determination of compounds' blood exposure.
`CCCOC(=O)N(n1c(=O)[nH]c2cc(C(F)(F)F)c(-c3ccnn3C(C)C)cc2c1=O)S(C)(=O)=O` [Example 5.07, [6-(2-Isopropyl-2H-pyrazol-3-yl)-2,4-dioxo-7-trifluoromethyl-1,4-dihydro-2H-quinazolin-3-yl]-methanesulfonyl-carbamic acid propyl ester] showed a responders at 50 mg/kg of 40%.
Work on `COCCOC(=O)N(n1c(=O)[nH]c2cc(C(F)F)c(-c3ccnn3C(C)C)cc2c1=O)S(C)(=O)=O` [Example 6.07, [7-Difluoromethyl-6-(2-isopropyl-2H-pyrazol-3-yl)-2,4-dioxo-1,4-dihydro-2H-quinazolin-3-yl]-methanesulfonyl-carbamic acid 2-methoxy-ethyl ester] yielded a responders at 50 mg/kg of 40%.
`CC(C)c1cc2[nH]c(=O)n(N(C(=O)C(C)(C)C)S(C)(=O)=O)c(=O)c2cc1-c1ccnn1C` [Example 3.23, N-(2,2-Dimethyl-propionyl)-N-[7-isopropyl-6-(2-methyl-2H-pyrazol-3-yl)-2,4-dioxo-1,4-dihydro-2H-quinazolin-3-yl]-methanesulfonamide] showed a responders at 50 mg/kg of 20%.
For `CCCCCOC(=O)N(n1c(=O)[nH]c2cc(C(F)(F)F)c(C(CC)OC)cc2c1=O)S(C)(=O)=O` (centres unmarked) [Example 11.12, Methanesulfonyl-[6-(1-methoxy-propyl)-2,4-dioxo-7-trifluoromethyl-1,4-dihydro-2H-quinazolin-3-yl]-carbamic acid pentyl ester], the responders at 50 mg/kg was 20%.
In the case of `CCC(OC)c1cc2c(=O)n(N(C(=O)OC(C)C)S(C)(=O)=O)c(=O)[nH]c2cc1C(F)(F)F` (centres unmarked) [Example 11.14, Methanesulfonyl-[6-(1-methoxy-propyl)-2,4-dioxo-7-trifluoromethyl-1,4-dihydro-2H-quinazolin-3-yl]-carbamic acid isopropyl ester], the responders at 50 mg/kg is reported as 60%.
`CCC(OC)c1cc2c(=O)n(N(C(=O)OCCOC)S(C)(=O)=O)c(=O)[nH]c2cc1C(F)(F)F` (centres unmarked) [Example 11.01, Methanesulfonyl-[6-(1-methoxy-propyl)-2,4-dioxo-7-trifluoromethyl-1,4-dihydro-2H-quinazolin-3-yl]-carbamic acid 2-methoxy-ethyl ester] was tested, and the responders at 50 mg/kg was 60%.
`CC(C)C(=O)N(n1c(=O)[nH]c2cc(C(C)C)c(-c3ccnn3C)cc2c1=O)S(C)(=O)=O` [Example 3.16, N-Isobutyryl-N-[7-isopropyl-6-(2-methyl-2H-pyrazol-3-yl)-2,4-dioxo-1,4-dihydro-2H-quinazolin-3-yl]-methanesulfonamide] was tested, and the responders at 50 mg/kg was 60%.
`CCCCCCOC(=O)N(n1c(=O)[nH]c2cc(C(F)(F)F)c(C(CC)OC)cc2c1=O)S(C)(=O)=O` (centres unmarked) [Example 11.13, Methanesulfonyl-[6-(1-methoxy-propyl)-2,4-dioxo-7-trifluoromethyl-1,4-dihydro-2H-quinazolin-3-yl]-carbamic acid hexyl ester] showed a responders at 50 mg/kg of 60%.
`CCCCC(=O)N(n1c(=O)[nH]c2cc(CC)c(-c3ccnn3C)cc2c1=O)S(C)(=O)=O` [Example 2.11, N-[7-Ethyl-6-(2-methyl-2H-pyrazol-3-yl)-2,4-dioxo-1,4-dihydro-2H-quinazolin-3-yl]-N-pentanoyl-methanesulfonamide] gave a responders at 50 mg/kg of 100%.
For `CCCCC(=O)N(n1c(=O)[nH]c2cc(C(F)(F)F)c(-n3cnnc3)cc2c1=O)S(C)(=O)=O` [Example 9.03, N-(2,4-Dioxo-6-[1,2,4]triazol-4-yl-7-trifluoromethyl-1,4-dihydro-2H-quinazolin-3-yl)-N-pentanoyl-methanesulfonamide], the responders at 50 mg/kg was 20%.
`CCCCOC(=O)N(n1c(=O)[nH]c2cc(C(C)C)c(-c3ccnn3C)cc2c1=O)S(C)(=O)=O` [Example 3.21, [7-Isopropyl-6-(2-methyl-2H-pyrazol-3-yl)-2,4-dioxo-1,4-dihydro-2H-quinazolin-3-yl]-methanesulfonyl-carbamic acid butyl ester] showed a responders at 50 mg/kg of 100%.

Same assay, conditions: Mus musculus, po; 50 mg/kg, p.o., pre-treatment time −2 h (footnote a); read-out: %-Protection
`CC(C)CC(=O)N(n1c(=O)[nH]c2cc(C(F)(F)F)c(-n3cnnc3)cc2c1=O)S(C)(=O)=O` [Example 9.01, N-(2,4-Dioxo-6-[1,2,4]triazol-4-yl-7-trifluoromethyl-1,4-dihydro-2H-quinazolin-3-yl)-N-(3-methyl-butyryl)-methanesulfonamide] showed a responders at 50 mg/kg of 40%.

Same assay, conditions: Mus musculus, po; Dose: 15 mg/kg, p.o. (footnote c), pre-treatment time −1 h; read-out: %-Protection
`CC(C)COC(=O)N(n1c(=O)c2cc(-c3ccnn3C)c(C(C)C)cc2n(C(=O)OCC(C)C)c1=O)S(C)(=O)=O` [Example 3.04, 3-(Isobutoxycarbonyl-methanesulfonyl-amino)-7-isopropyl-6-(2-methyl-2H-pyrazol-3-yl)-2,4-dioxo-3,4-dihydro-2H-quinazoline-1-carboxylic acid isobutyl ester] was tested, and the responders at 15 mg/kg was 20%.

Same assay, conditions: Mus musculus, po; Dose: 25 mg/kg, p.o. (footnote b), pre-treatment time −1 h; read-out: %-Protection
With `CCCCCC(=O)N(n1c(=O)[nH]c2cc(CC)c(-c3ccnn3C)cc2c1=O)S(C)(=O)=O` [Example 2.03, N-[7-Ethyl-6-(2-methyl-2H-pyrazol-3-yl)-2,4-dioxo-1,4-dihydro-2H-quinazolin-3-yl]-N-hexanoyl-methanesulfonamide] the responders at 25 mg/kg was 100%.

Same assay, conditions: Mus musculus; dose of up to 50 mg/kg, p.o., 1 hour prior to induction of convulsions; read-out: %-Protection
With `CCn1nccc1-c1cc2c(=O)n(N(C(=O)CCSC)S(C)(=O)=O)c(=O)[nH]c2cc1C(F)F` [N-[7-Difluoromethyl-6-(2-ethyl-2H-pyrazol-3-yl)-2,4-dioxo-1,4-dihydro-2H-quinazolin-3-yl]-N-(3-methylsulfanyl-propionyl)-methanesulfonamide] the responders at 50 mg/kg was 0%.
In the case of `CCCCC(=O)N(n1c(=O)[nH]c2cc(C(F)F)c(-c3ccnn3CC)cc2c1=O)S(C)(=O)=O` [N-[7-Difluoromethyl-6-(2-ethyl-2H-pyrazol-3-yl)-2,4-dioxo-1,4-dihydro-2H-quinazolin-3-yl]-N-pentanoyl-methanesulfonamide], the responders at 50 mg/kg is reported as 0%.
`CC(C)OC(=O)N(n1c(=O)[nH]c2cc(C(F)(F)F)c([C@H]3CCCO3)cc2c1=O)S(C)(=O)=O` [Methanesulfonyl-[(R)-2,4-Dioxo-6-tetrahydro-furan-2-yl-7-trifluoromethyl-1,4-dihydro-2H-quinazolin-3-yl]carbamic acid isopropyl ester] gave a responders at 50 mg/kg of 0%.
`COC(=O)N(n1c(=O)[nH]c2cc(C(F)F)c(-c3ccnn3C(C)C)cc2c1=O)S(C)(=O)=O` [[7-Difluoromethyl-6-(2-isopropyl-2H-pyrazol-3-yl)-2,4-dioxo-1,4-dihydro-2H-quinazolin-3-yl]-methanesulfonyl-carbamic acid methyl ester] showed a responders at 50 mg/kg of 0%.
For `CCc1cc2[nH]c(=O)n(N(C(=O)OC)S(C)(=O)=O)c(=O)c2cc1-c1ccnn1CC` [Methanesulfonyl-[7-ethyl-6-(2-ethyl-2H-pyrazol-3-yl)-2,4-dioxo-1,4-dihydro-2H-quinazolin-3-yl]carbamic acid methyl ester], the responders at 50 mg/kg was 0%.
Work on `CCn1nccc1-c1cc2c(=O)n(N(C(=O)C(C)(C)C)S(C)(=O)=O)c(=O)[nH]c2cc1C(F)F` [N-[7-Difluoromethyl-6-(2-ethyl-2H-pyrazol-3-yl)-2,4-dioxo-1,4-dihydro-2H-quinazolin-3-yl]-N-(2,2-dimethyl-propionyl)-methanesulfonamide] yielded a responders at 50 mg/kg of 0%.
For `CCCCC(=O)N(n1c(=O)[nH]c2cc(C(F)(F)F)c(-c3ccnn3CC)cc2c1=O)S(C)(=O)=O` [N-[6-(2-Ethyl-2H-pyrazol-3-yl)-2,4-dioxo-7-trifluoromethyl-1,4-dihydro-2H-quinazolin-3-yl]-N-pentanoyl-methanesulfonamide], the responders at 50 mg/kg was 0%.
For `CCn1nccc1-c1cc2c(=O)n(N(C(=O)COC(C)=O)S(C)(=O)=O)c(=O)[nH]c2cc1C(F)(F)F` [Acetic acid 2-{[6-(2-ethyl-2H-pyrazol-3-yl)-2,4-dioxo-7-trifluoromethyl-1,4-dihydro-2H-quinazolin-3-yl]-methanesulfonyl-amino}-2-oxo-ethyl ester], the responders at 50 mg/kg was 0%.
For `CCc1cc2[nH]c(=O)n(N(C(=O)C(C)C)S(C)(=O)=O)c(=O)c2cc1-c1ccnn1C` [N-[7-Ethyl-6-(2-methyl-2H-pyrazol-3-yl)-2,4-dioxo-1,4-dihydro-2H-quinazolin-3-yl]-N-isobutyryl-methanesulfonamide], the responders at 50 mg/kg was 0%.
In the case of `CCn1nccc1-c1cc2c(=O)n(N(C(=O)OC)S(C)(=O)=O)c(=O)[nH]c2cc1C(F)F` [[7-Difluoromethyl-6-(2-ethyl-2H-pyrazol-3-yl)-2,4-dioxo-1,4-dihydro-2H-quinazolin-3-yl]-methanesulfonyl-carbamic acid methyl ester], the responders at 50 mg/kg is reported as 0%.
`CCOC(=O)CCC(=O)N(n1c(=O)[nH]c2cc(C(F)(F)F)c(-c3ccnn3C(C)C)cc2c1=O)S(C)(=O)=O` [4-{[6-(2-Isopropyl-2H-pyrazol-3-yl)-2,4-dioxo-7-trifluoromethyl-1,4-dihydro-2H-quinazolin-3-yl]-methanesulfonyl-amino}-4-oxo-butyric acid ethyl ester] gave a responders at 50 mg/kg of 0%.
`CCCOC(=O)N(n1c(=O)[nH]c2cc(CC)c(-c3ccnn3CC)cc2c1=O)S(C)(=O)=O` [Methanesulfonyl-[7-ethyl-6-(2-ethyl-2H-pyrazol-3-yl)-2,4-dioxo-1,4-dihydro-2H-quinazolin-3-yl]carbamic acid propyl ester] gave a responders at 50 mg/kg of 0%.
